These results are taken from patent US12622898B2, “Methods and compositions for improving bone marrow hematopoietic functions” (SUN YAT-SEN UNIVERSITY, priority 2019, dated 2026).

Experiment [1] deals with HSPCs (LT-HSC, ST-HSC, MPP, CD150HSC). Briefly: ABC294640 treatment after 5 FU chemotherapeutic stress: HSPC numbers and ROS. The following applies: vs vehicle. The format is in vivo, mouse. The source says: B6N.129S6-Sphk1tm1Rlp/J (Sphk1Δ/Δ) and B6N.129S6-Sphk2tm1Rlp/J (Sphk2Δ/Δ) mice were obtained from the Jackson Laboratory. To achieve tissue-specific deletion of Sphk2, the Sphk2^flox/flox mice were crossed with Vav-Cre transgenic mice. Sphk2^flox/flox mice was constructed by Cyagen Biosciences Inc. Briefly, linearized targeting vector was electroporated into embryonic stem (ES) cells and positive clones were identified by Southern blotting and injected into C57BL/6 blastocysts followed by chimera production to obtain germline transmission. The Frt-flanked Neo cassette was subsequently removed by mating with Flpe mice. 2-month-old mice or more than 20-month old for aging we used as indicated. 5 FU (Sigma-Aldrich) was injected once or once a week for survival curve as indicated in the tail vein at 150 μg/g body weight. Sphk2 inhibitor ABC294640 (Target Molecule Corp T6750) and PDK inhibitor Sodium dichloroacetate (DCA) (Selleck Chemicals S8615) were intraperitoneal injected at 25 mg/kg. […] Animals were randomly included in the experiments according to genotyping results as a mix of male and female. All animal experiments were performed according to protocols approved by the institutional animal care and use committee.
For phenotype analysis and hematopoietic purification, hematopoietic cells were harvested from bone marrow (femur and tibia). For cell surface phenotyping, a lineage cocktail (Lin, phycoerythrin (PE)-Cy5) was used, including anti-CD3 (145-2C11), anti-CD4 (RM4-5), anti-CD8 (53-6.7), anti-Mac-1 (M1/70), anti-Gr1 (RB6-8C5), anti-B220 (RA3-6B2), anti-IgM (11/41) and anti-TER119 (TER-119) (100 ng antibody cocktail per million bone marrow cells, Biolegend). Monoclonal antibodies to SCA1 (D7, Biolegend), c-KIT (2B8, Biolegend), FLK2 (A2F10, Biolegend), CD34 (RAM34, eBioscience), CD48 (HM48-1, Biolegend), CD41 (MWReg30, eBioscience), CD150 (TC15-12F12.2, BioLegend), CD16/32 (93, Biolegend), IL-7R (A7R34, Biolegend) (all used as 50 ng per million bone marrow cells) were also used where indicated.
The cells were further incubated with 0.1 ug/uL DAPI (1306, Thermo Scientific) for 30 min at room temperature. For apoptosis and ROS analysis, the cells were stained by AnnexinV or DCFDA (D6883, Sigma-Aldrich).
Cell sorting and analysis were performed using an Attune NxT analyzer (Thermo Fisher Scientific) or InFlux Cell Sorter (BD Biosciences). Data analysis was performed using FlowJo software.

Experiment [2] relates to functional HSCs (engrafted donor cells in PB). Briefly: Competitive repopulation (serial transplantation) of bone marrow cells from mice after 5 FU and ABC294640 treatment. The following applies: for increase of reconstitution (engrafted donor cells): at 16 weeks, vs vehicle treated bone marrow cells. The class given is in vivo, mouse. As to the method:
For lineage analysis of peripheral blood, monoclonal antibodies to CD45.1 (A20, eBioscience), CD45.2 (104, Biolegend), CD3, B220, Mac-1 and Gr1 were used. 2.0×10^5 CD45.2 bone marrow cells and 2.0×10^5 CD45.1 rescue bone marrow cells were transplanted into lethally irradiated CD45.1 recipients. Adult recipient mice (CD45.1) were irradiated with an Orthovoltage X-ray source delivering approximately in two equal doses of 4.5 Gy at least 3 hours apart. For secondary or tertiary transplantation, bone marrow cells from each recipient were injected into one or two irradiated new recipient mouse (1×10^6 per recipient, depending on the number of recipients) during each round of transplantation. Every 4 weeks after transplantation, peripheral blood was collected from the submandibular vein. Hematopoietic repopulation was measured from donor-derived blood cells (CD45.2) or human-derived blood cells (human CD45).

Experiment [3] in a line: Survival of C57BL/6J mice after serial 5 FU challenges with ABC294640 treatment. The class given is in vivo, mouse. The following applies: serial 5 FU every 7 days, ABC294640 every other day; vs control. From the text:
B6N.129S6-Sphk1tm1Rlp/J (Sphk1Δ/Δ) and B6N.129S6-Sphk2tm1Rlp/J (Sphk2Δ/Δ) mice were obtained from the Jackson Laboratory. To achieve tissue-specific deletion of Sphk2, the Sphk2^flox/flox mice were crossed with Vav-Cre transgenic mice. Sphk2^flox/flox mice was constructed by Cyagen Biosciences Inc. Briefly, linearized targeting vector was electroporated into embryonic stem (ES) cells and positive clones were identified by Southern blotting and injected into C57BL/6 blastocysts followed by chimera production to obtain germline transmission. The Frt-flanked Neo cassette was subsequently removed by mating with Flpe mice. 2-month-old mice or more than 20-month old for aging we used as indicated. 5 FU (Sigma-Aldrich) was injected once or once a week for survival curve as indicated in the tail vein at 150 μg/g body weight. Sphk2 inhibitor ABC294640 (Target Molecule Corp T6750) and PDK inhibitor Sodium dichloroacetate (DCA) (Selleck Chemicals S8615) were intraperitoneal injected at 25 mg/kg. […]
Data are expressed as means±s.d. For all experiments except determination of survival, data were analyzed by Student's t test, and differences were considered statistically significant if P<0.05. The survival of the two groups were analyzed using a log-rank test, and differences were considered statistically significant if P<0.05. […]

For experiment [4], the system named is Pdk3 expression in HSPCs. In words: Pdk3 mRNA levels and immunoblotting in HSCs treated with inhibitors. The format is cell-based, mouse. As to the method:
The same number of cells from each population to be analyzed were sorted into PBS with 2% FBS. The cells then were washed with PBS and Lysised by RIPA. Equal amounts of protein extracts were fractionated by 12.5% SDS-PAGE and transferred to a PVDF membrane (IPVH00010, Merck Millipore). After blocked with 5% non-fat milk in Tris-buffered saline with Tween-20 (TBST, pH 7.6) for 1 h at room temperature, the membranes were incubated with primary antibodies anti-phospho-PDHE1-A type I (Ser293) (rabbit, 1:1000, ABS204, Merck Millipore), anti-Sphk2 (rabbit, 1:1000, 17096, Proteintech), anti-PDK3 (rabbit, 1:1000, 4970s, Proteintech), or anti-βactin (rabbit, 1:1000, 2118, Cell Signaling Technology), or with primary antibodies anti-PDK3 (rabbit, 1:1000, 12215, Proteintech), anti-β-actin (rabbit, 1:1000, 4970s, Cell Signaling Technology), overnight at 4° C. and then incubated with secondary antibodies (rabbit, 1:10,000, W401B, Promega) for 1 h at room temperature, which was detected by exposure to x-ray film, or by digital imaging with a charge-coupled device camera system (Odyssey Fc). The images shown are representative of images from at least three experiments.

Experiment [5] has as its system human cord blood HSCs (CB-HSCs, CD34+CD38-CD45RA-CD49f+). Briefly: Ex vivo culture of human cord blood cells with ABC294640. The class given is cell-based. The following applies: 2-week culture, ABC294640 1 μM; vs vehicle. As to the method: For phenotype analysis of human cord blood HSCs (CB-HSCs, CD34^+CD38-CD45RA-CD49f^+), cell surface phenotyping, anti-hCD34 (581), anti-hCD38 (HIT2), anti-hCD45RA (HI100) and anti-hCD49f (GOH3) (100 ng antibody cocktail per million cord blood cells, Biolegend) were used. Human cord blood cells (2×10^5) were cultured in 96-round-well plate with Stem Span media (9650, Stem Cell Technologies) supplemented with SCF (10 ng per ml), TPO (20 ng per ml) for two weeks. The culture media was supplemented with vehicle or ABC294640 (1 μM, Target Molecule Corp […]). After culture for two weeks, the culture product was transplanted into irradiated (2Gy) 6-12 weeks old NSG mice via the tail. No mice were excluded unless they died during the 16-week-observations. All animal experiments were performed according to protocols approved by the institutional animal care and use committee.

Setting [6] is: donor-derived lineage cells at 16 weeks after transplantation.

SMILES strings stand for the structures. “Also recorded” adds a separate entry of the source.

Regarding `O=C(NCc1ccncc1)C12CC3CC(C1)CC(c1ccc(Cl)cc1)(C3)C2` [ABC294640, 3-(4-chloro-phenyl)-adamantane-1-carboxylic acid (pyridin-4-ylmethyl)-amide], in experiment [1] (day 14 after 5 FU treatment), the “ROS level in CD150 HSCs” value is “markedly reduced”. Further, in experiment [1] (day 14 post 5 FU), the “increase of CD150 HSC number” value is recorded as 2.2 fold, the “increase of LT-HSC number” value is listed as 2.2 fold and the “increase of ST-HSC number” value is on record as 1.6 fold. Moreover, in experiment [2] (setting [6]), the lymphopoiesis in recipients entry is given as “markedly promoted lymphopoiesis” and the “myeloid skewing in recipients” value is recorded as “suppressed myeloid skewing”. Also, in experiment [2] (primary transplantation), the “increase of reconstitution (engrafted donor cells)” value (from here on “increase of reconstitution”) turned out to be 1.7 fold. In experiment [2] (secondary transplantation), the “increase of reconstitution” value was determined as 1.5 fold. In addition, the “increase of reconstitution” value in experiment [2] (tertiary transplantation) is 1.9 fold. In addition, the survival entry in experiment [3] is “significantly prolonged; also recorded: notably increased survival”. Moreover, the “Pdk3 expression in HSPCs” value in experiment [4] is recorded as “could upregulate Pdk3 expression”. Also, the “increase of human HSC numbers” value in experiment [5] was 1.4 fold.
